US20240158446A1, “CYCLIC COMPOUND HAVING SELECTIVE INHIBITORY ACTION ON KRAS OVER HRAS AND NRAS” (CHUGAI SEIYAKU KABUSHIKI KAISHA, priority 2021, published 2024)
Where a SMILES comes first, the peptide text is derived from it. Bridges are numbered along the chain shown (N, C = ends). [ ]: non-standard residue; d: D form. The star is where a group is joined. hPhe(3-Cl-4-CF3) = N[C@@H](CCc1ccc(C(F)(F)F)c(Cl)c1)C(=O)O; NPrPhe(4-CF3) = CCCN[C@@H](Cc1ccc(C(F)(F)F)cc1)C(=O)O; NMeGly(cPent) = CN[C@H](C(=O)O)C1CCCC1; Pro(4,4-Me2) = CC1(C)CN[C@H](C(=O)O)C1; Pro(4S-Me) = C[C@@H]1CN[C@H](C(=O)O)C1; NMeD = CN[C@@H](CC(=O)O)C(=O)O; NMeL = CN[C@@H](CC(C)C)C(=O)O; Morpholide = C1CN(*)CCO1; NMeA = CN[C@@H](C)C(=O)O; Ac5c = NC1(C(=O)O)CCCC1; Aze = O=C(O)[C@@H]1CCN1; NEtG = CCNCC(=O)O; Sar = CNCC(=O)O

How the values were obtained:
[1] = target: GDP-bound HRAS wild-type protein (Homo sapiens, UniProt P01112); assay: Binding to HRAS by surface plasmon resonance (SPR), Single Cycle Kinetics; conditions: SPR, GDP-bound HRAS wild-type protein vs GDP-bound KRAS wild-type protein
[2] = target: GDP-bound NRAS wild-type protein (Homo sapiens, UniProt P01111); assay: Binding to NRAS by surface plasmon resonance (SPR), Single Cycle Kinetics; conditions: SPR, GDP-bound NRAS wild-type protein vs GDP-bound KRAS wild-type protein
[3] = target: GDP-bound KRAS wild-type protein (Homo sapiens, UniProt P01116); assay: Binding to KRAS by surface plasmon resonance (SPR), Single Cycle Kinetics; conditions: SPR Single Cycle Kinetics, GDP-bound KRAS wild-type protein, 1:1 binding model; read-out: KRAS KD
Chain of GDP-bound KRAS wild-type protein (P01116 whole entry): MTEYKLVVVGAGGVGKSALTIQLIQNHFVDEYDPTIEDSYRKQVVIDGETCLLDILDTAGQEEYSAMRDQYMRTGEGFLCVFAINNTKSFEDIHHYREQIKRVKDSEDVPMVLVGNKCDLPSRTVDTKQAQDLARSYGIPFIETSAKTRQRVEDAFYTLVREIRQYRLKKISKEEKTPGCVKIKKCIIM

Chain of GDP-bound NRAS wild-type protein (P01111 whole entry): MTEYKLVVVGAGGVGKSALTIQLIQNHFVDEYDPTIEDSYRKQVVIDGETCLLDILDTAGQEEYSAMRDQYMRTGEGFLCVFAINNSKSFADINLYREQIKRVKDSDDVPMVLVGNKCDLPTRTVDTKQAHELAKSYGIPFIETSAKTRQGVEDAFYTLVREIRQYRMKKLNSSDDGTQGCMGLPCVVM
Chain of GDP-bound HRAS wild-type protein (P01112 whole entry): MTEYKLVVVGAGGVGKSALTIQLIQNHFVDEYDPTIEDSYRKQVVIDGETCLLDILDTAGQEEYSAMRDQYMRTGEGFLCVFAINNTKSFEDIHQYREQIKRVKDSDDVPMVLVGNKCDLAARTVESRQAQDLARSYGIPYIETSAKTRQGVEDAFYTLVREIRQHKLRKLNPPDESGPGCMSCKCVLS

Row | SMILES | HRAS/KRAS (ratio of KD value with respect to HRAS to KD value with respect to KRAS) [1] | NRAS/KRAS (ratio of KD value with respect to NRAS to KD value with respect to KRAS) [2] | Kd [3]
1 | CCCN1C(=O)CN(C)C(=O)CN(C)C(=O)[C@H]([C@@H](C)CC)NC(=O)[C@H](CC(C)C)N(C)C(=O)C[C@@H](C(=O)N2CCOCC2)N(C)C(=O)[C@H](C2CCCC2)N(C)C(=O)C2(CCCC2)NC(=O)[C@@H]2CC(C)(C)CN2C(=O)[C@H](CCc2ccc(C(F)(F)F)c(Cl)c2)NC(=O)CN(C)C(=O)[C@@H]1Cc1ccc(C(F)(F)F)cc1 [PP0446] ([NMeL]I[Sar][Sar][NPrPhe(4-CF3)][Sar][hPhe(3-Cl-4-CF3)][Pro(4,4-Me2)][Ac5c][NMeGly(cPent)][NMeD]-Morpholide; lactam N-11) | C (A compound having a KD ratio of 0.1 or more and less than 3 is denoted as C) | B (a compound having 3 or more and less than 10 is denoted as B) | 0.1 nM
2 | CCCN1C(=O)CN(C)C(=O)CN(C)C(=O)[C@H]([C@@H](C)CC)NC(=O)[C@H](CC(C)C)N(C)C(=O)C[C@@H](C(=O)N2CCOCC2)N(C)C(=O)[C@H](C2CCCC2)N(C)C(=O)C2(CCCC2)NC(=O)[C@@H]2C[C@H](C)CN2C(=O)[C@H](CCc2ccc(C(F)(F)F)c(Cl)c2)NC(=O)CN(C)C(=O)[C@@H]1Cc1ccc(C(F)(F)F)cc1 [PP0447] ([NMeL]I[Sar][Sar][NPrPhe(4-CF3)][Sar][hPhe(3-Cl-4-CF3)][Pro(4S-Me)][Ac5c][NMeGly(cPent)][NMeD]-Morpholide; lactam N-11) | C (A compound having a KD ratio of 0.1 or more and less than 3 is denoted as C) | B (a compound having 3 or more and less than 10 is denoted as B) | 0.18 nM
3 | CCCN1C(=O)CN(C)C(=O)CNC(=O)[C@H]([C@@H](C)CC)NC(=O)[C@H](CC(C)C)N(C)C(=O)C[C@@H](C(=O)N2CCOCC2)N(C)C(=O)[C@H](C2CCCC2)N(C)C(=O)C2(CCCC2)NC(=O)[C@@H]2CC(C)(C)CN2C(=O)[C@H](CCc2ccc(C(F)(F)F)c(Cl)c2)NC(=O)CN(C)C(=O)[C@@H]1Cc1ccc(C(F)(F)F)cc1 [PP0448] ([NMeL]IG[Sar][NPrPhe(4-CF3)][Sar][hPhe(3-Cl-4-CF3)][Pro(4,4-Me2)][Ac5c][NMeGly(cPent)][NMeD]-Morpholide; lactam N-11) | C (A compound having a KD ratio of 0.1 or more and less than 3 is denoted as C) | B (a compound having 3 or more and less than 10 is denoted as B) | 0.15 nM
4 | CCCN1C(=O)CN(C)C(=O)CNC(=O)[C@H]([C@@H](C)CC)NC(=O)[C@H](CC(C)C)N(C)C(=O)C[C@@H](C(=O)N2CCOCC2)N(C)C(=O)[C@H](C2CCCC2)N(C)C(=O)C2(CCCC2)NC(=O)[C@@H]2C[C@H](C)CN2C(=O)[C@H](CCc2ccc(C(F)(F)F)c(Cl)c2)NC(=O)CN(C)C(=O)[C@@H]1Cc1ccc(C(F)(F)F)cc1 [PP0449] ([NMeL]IG[Sar][NPrPhe(4-CF3)][Sar][hPhe(3-Cl-4-CF3)][Pro(4S-Me)][Ac5c][NMeGly(cPent)][NMeD]-Morpholide; lactam N-11) | C (A compound having a KD ratio of 0.1 or more and less than 3 is denoted as C) | C (A compound having a KD ratio of 0.1 or more and less than 3 is denoted as C) | 0.35 nM
5 | CCCN1C(=O)CN(C)C(=O)CN(CC)C(=O)[C@H]([C@@H](C)CC)NC(=O)[C@H](CC(C)C)N(C)C(=O)C[C@@H](C(=O)N2CCOCC2)N(C)C(=O)[C@H](C2CCCC2)N(C)C(=O)C2(CCCC2)NC(=O)[C@@H]2CC(C)(C)CN2C(=O)[C@H](CCc2ccc(C(F)(F)F)c(Cl)c2)NC(=O)CN(C)C(=O)[C@@H]1Cc1ccc(C(F)(F)F)cc1 [PP0450] ([NMeL]I[NEtG][Sar][NPrPhe(4-CF3)][Sar][hPhe(3-Cl-4-CF3)][Pro(4,4-Me2)][Ac5c][NMeGly(cPent)][NMeD]-Morpholide; lactam N-11) | C (A compound having a KD ratio of 0.1 or more and less than 3 is denoted as C) | B (a compound having 3 or more and less than 10 is denoted as B) | 0.38 nM
6 | CCCN1C(=O)[C@@H]2CCN2C(=O)[C@H](C)N(C)C(=O)[C@H]([C@@H](C)CC)NC(=O)[C@H](CC(C)C)N(C)C(=O)C[C@@H](C(=O)N2CCOCC2)N(C)C(=O)[C@H](C2CCCC2)N(C)C(=O)C2(CCCC2)NC(=O)[C@@H]2CC(C)(C)CN2C(=O)[C@H](CCc2ccc(C(F)(F)F)c(Cl)c2)NC(=O)CN(C)C(=O)[C@@H]1Cc1ccc(C(F)(F)F)cc1 [PP0454] ([NMeL]I[NMeA][Aze][NPrPhe(4-CF3)][Sar][hPhe(3-Cl-4-CF3)][Pro(4,4-Me2)][Ac5c][NMeGly(cPent)][NMeD]-Morpholide; lactam N-11) | C (A compound having a KD ratio of 0.1 or more and less than 3 is denoted as C) | C (A compound having a KD ratio of 0.1 or more and less than 3 is denoted as C) | 0.073 nM
7 | CCCN1C(=O)[C@@H]2CCN2C(=O)CN(C)C(=O)[C@H]([C@@H](C)CC)NC(=O)[C@H](CC(C)C)N(C)C(=O)C[C@@H](C(=O)N2CCOCC2)N(C)C(=O)[C@H](C2CCCC2)N(C)C(=O)C2(CCCC2)NC(=O)[C@@H]2CC(C)(C)CN2C(=O)[C@H](CCc2ccc(C(F)(F)F)c(Cl)c2)NC(=O)CN(C)C(=O)[C@@H]1Cc1ccc(C(F)(F)F)cc1 [PP0456] ([NMeL]I[Sar][Aze][NPrPhe(4-CF3)][Sar][hPhe(3-Cl-4-CF3)][Pro(4,4-Me2)][Ac5c][NMeGly(cPent)][NMeD]-Morpholide; lactam N-11) | C (A compound having a KD ratio of 0.1 or more and less than 3 is denoted as C) | C (A compound having a KD ratio of 0.1 or more and less than 3 is denoted as C) | 0.07 nM
8 | CCCN1C(=O)[C@@H]2CCN2C(=O)CN(C)C(=O)[C@H]([C@@H](C)CC)NC(=O)[C@H](CC(C)C)N(C)C(=O)C[C@@H](C(=O)N2CCOCC2)N(C)C(=O)[C@H](C2CCCC2)N(C)C(=O)C2(CCCC2)NC(=O)[C@@H]2C[C@H](C)CN2C(=O)[C@H](CCc2ccc(C(F)(F)F)c(Cl)c2)NC(=O)CN(C)C(=O)[C@@H]1Cc1ccc(C(F)(F)F)cc1 [PP0457] ([NMeL]I[Sar][Aze][NPrPhe(4-CF3)][Sar][hPhe(3-Cl-4-CF3)][Pro(4S-Me)][Ac5c][NMeGly(cPent)][NMeD]-Morpholide; lactam N-11) | B (a compound having 3 or more and less than 10 is denoted as B) | C (A compound having a KD ratio of 0.1 or more and less than 3 is denoted as C) | 0.083 nM
9 | CC[C@H](C)[C@@H]1NC(=O)[C@H](CC(C)C)N(C)C(=O)C[C@@H](C(=O)N2CCOCC2)N(C)C(=O)[C@H](C2CCCC2)N(C)C(=O)C2(CCCC2)NC(=O)[C@@H]2CCCN2C(=O)[C@H](CCc2ccc(C(F)(F)F)c(Cl)c2)NC(=O)CN(C)C(=O)[C@H](Cc2ccc(C)cc2)N2CC/C=C\C[C@@H](C2=O)N(C)C(=O)CN(C)C1=O [PP0461] | A (a compound having 10 or more and less than 20 is denoted as A) | A (a compound having 10 or more and less than 20 is denoted as A) | 0.49 nM
